Test results as given in paper PMC12735951, “A Bioorthogonal TCO–Tetrazine-Based Pretargeted PET/NIRF Platform Enabling High-Contrast Tumor Imaging” (Pharmaceuticals, 2025).

Columns and labels:
[1] = tested on: HeLa xenograft; assay: In vivo NIR fluorescence imaging, HeLa xenograft-bearing nude mice
Experimental: (§1) To evaluate the tumor-targeting characteristics of DZ-TCO derivatives, DZ-1-TCO, DZ-Lys-TCO, and DZ-Lys-PEG4-TCO were administered to HeLa and U87MG xenograft-bearing nude mice (100 μL of 50 μM, n = 3 per group). In vivo fluorescence imaging was conducted at 4, 24, 48, 72, and 96 h after TCO compound injection.
(§2) Female BALB/c nude mice (4–6 weeks old; 14–20 g), obtained from Beijing Vital River Laboratory Animal Technology Co., Ltd. (Beijing, China), were subcutaneously inoculated with 5 × 10^6 HeLa or U87MG cells suspended in 100 μL PBS into the right flank. Tumor growth was monitored every 2–3 days using digital calipers, and experiments were initiated when tumor volumes reached approximately 150–300 mm^3, calculated using the formula Volume = (length × width^2)/2.
(§3) To assess the tumor-targeting capability and clearance kinetics of DZ-TCO precursors, 100 µL of each compound ([…] in PBS) was administered intravenously via the tail vein. Whole-body fluorescence imaging was performed at predetermined time points (4, 24, 48, 72, and 96 h post-injection) using the IVIS Spectrum imaging system (PerkinElmer, Shelton, CT, USA) (excitation/emission, 745/820 nm) with automatic subtraction of background fluorescence during the acquisition. Fluorescence signals were acquired under standardized exposure settings, and region-of-interest (ROI) analysis was conducted using Living Image software version 4.4 (PerkinElmer) to quantify fluorescence intensity in the tumor and major organs.

[2] = tested on: U87MG xenograft; assay: In vivo NIR fluorescence imaging, U87MG xenograft-bearing nude mice
Experimental: as §1, §2, §3

[3] = tested on: HeLa and U87MG xenograft; assay: In vivo NIR fluorescence imaging, results not split by tumor model (organs, tumor-to-background ratios, retention); design: species or system mice; conditions: for time of peak tumor fluorescence signal / tumor fluorescence signal remained detectable (time post-injection): post-injection
Experimental: as §1, §2
as §3, with “([…])” for “(4, 24, 48, 72, and 96 h post-injection)”

[4] = Partition coefficient (log p), n-octanol/PBS; format: physicochemical
Experimental: (§4) ^68GaCl3 (5 mL, 20 mCi) and DOTA-Tz (50 μg) were mixed in a reaction vial. The pH was adjusted to 4.0–4.5 by adding 1 M sodium acetate, and the mixture was heated at 95 °C for 15 min without further purification. Radiochemical purity was confirmed by RP-HPLC. In vitro stability of ^68Ga-DOTA-Tz was assessed by incubating aliquots in 50% FBS or 50% PBS at 37 °C for 30 min, 1 h, 2 h, and 4 h. The partition coefficient (log p) was determined by mixing 1 mL of n-octanol with 1 mL of PBS containing the tracer, vortexing, and centrifuging at 3000 rpm for 5 min. Samples (0.1 mL) from both the organic and aqueous phases were withdrawn, and their radioactivity was measured using a γ-counter (PerkinElmer Wizard, Shelton, CT, USA).

[5] = In vitro stability in 50% fetal bovine serum (FBS); format: in vitro ADME; conditions: for radiochemical purity in FBS at 4 h: 50% FBS, 37 °C; for radiochemical stability after 4 h: PBS and serum
Experimental: as §4

[6] = In vitro stability in 50% PBS; format: physicochemical; conditions: 37 °C
Experimental: as §4

[7] = tested on: subcutaneous tumors; assay: Pretargeted PET imaging with DZ-Lys-TCO and ^68Ga-DOTA-H-Tz at different intervals; format: in vivo, mice; conditions: DZ-Lys-TCO pre-injected
Experimental: To evaluate in vivo tumor targeting and bioorthogonal reaction kinetics, female BALB/c nude mice bearing subcutaneous tumors were intravenously injected with […] of each DZ-TCO precursor in phosphate-buffered saline (PBS). At predefined intervals (24, 48, or 72 h post-injection), […] of ^68Ga-labeled tetrazine probe (^68Ga-DOTA-Me-Tz or ^68Ga-DOTA-H-Tz; 3.7 MBq in PBS) was administered via the tail vein. PET imaging was performed using the IRIS system (Inviscan, Paris, France) at 30 min, 1 h, and 2 h post-injection under 2% isoflurane anesthesia. Image reconstruction and quantitative analysis were conducted using Inveon Research Workplace and OsiriX MD software version 10.0.4. Regions of interest (ROIs) were manually defined over tumors and major organs, and radiotracer uptake was expressed as the percentage of the injected dose per gram of tissue (%ID/g).

[8] = tested on: HeLa tumors; assay: Pretargeting biodistribution (γ-counter) of DZ-Lys-TCO and ^68Ga-DOTA-H-Tz; format: in vivo, mice; conditions: DZ-Lys-TCO 48 h pretargeting interval
Experimental: To assess the in vivo biodistribution of the pretargeting system, female BALB/c nude mice bearing HeLa tumors (n = 3) were first injected intravenously with DZ-TCO. After 48 h, 0.74 MBq of ^68Ga-DOTA-H-Tz was administered via the tail vein. At 30, 60, and 120 min post-injection, mice were euthanized, and tissues including blood, tumor, liver, kidney, spleen, heart, lung, muscle, stomach, intestines, brain, and bone were excised, weighed, and counted using a γ-counter (Wizard2, PerkinElmer, Shelton, CT, USA). Radiotracer uptake was expressed as the percentage of injected dose per gram of tissue (%ID/g). Tumor-to-organ uptake ratios were calculated accordingly.

## CC1(C)C(=CC=C2CCCC(C=CC3=[N+](CCCCS(=O)(=O)[O-])c4ccccc4C3(C)C)=C2Cl)N(CCCCCC(=O)NCCCNC(=O)OC2CCC=CCCC2)c2ccccc21 (stereo not shown) [DZ-1-TCO]
[1]; 4 h post-injection
  tumor fluorescence intensity: 6.38 × 10^9 p/s/cm^2/sr
[1]; 24 h post-injection
  tumor fluorescence intensity: 6.93 × 10^9 p/s/cm^2/sr
[1]; 48 h post-injection
  tumor fluorescence intensity: 5.57 × 10^9 p/s/cm^2/sr
[2]; 4 h post-injection
  tumor fluorescence intensity: 5.44 × 10^9 p/s/cm^2/sr
[2]; 24 h post-injection
  tumor fluorescence intensity: 6.12 × 10^9 p/s/cm^2/sr
[2]; 48 h post-injection
  tumor fluorescence intensity: 4.82 × 10^9 p/s/cm^2/sr
[3]; 4 h
  tumor-to-background fluorescence ratio: 695.00 ± 59.15
[3]; 48 h
  tumor-to-background fluorescence ratio: 720.00 ± 64.21
[3]
  time of peak tumor fluorescence signal: 24 h
  tumor fluorescence signal remained detectable (time post-injection): 72 h

## CC1(C)C(=CC=C2CCCC(C=CC3=[N+](CCCCS(=O)(=O)[O-])c4ccccc4C3(C)C)=C2Cl)N(CCCCCC(=O)NCCCCC(N)C(=O)NCCOCCOCCOCCOCCNC(=O)OC2CCC=CCCC2)c2ccccc21 (stereo not shown) [DZ-Lys-PEG4-TCO]
[1]; 24 h post-injection
  tumor fluorescence intensity: 1.20 × 10^10 p/s/cm^2/sr
[3]; 4 h
  tumor-to-background fluorescence ratio: 737.00 ± 159.93
[3]; 24 h
  tumor-to-background fluorescence ratio: 1303.33 ± 116.76
[3]
  time of peak tumor fluorescence signal: 24 h
  tumor fluorescence signal remained detectable (time post-injection): 96 h

## CC1(C)C(=CC=C2CCCC(C=CC3=[N+](CCCCS(=O)(=O)[O-])c4ccccc4C3(C)C)=C2Cl)N(CCCCCC(=O)NCCCCC(N)C(=O)NCCCNC(=O)OC2CCC=CCCC2)c2ccccc21 (stereo not shown) [DZ-Lys-TCO]
[1]; 4 h post-injection
  tumor fluorescence intensity: 2.19 × 10^9 p/s/cm^2/sr
[1]; 24 h post-injection
  tumor fluorescence intensity: 7.06 × 10^9 p/s/cm^2/sr
[1]; 48 h post-injection
  tumor fluorescence intensity: 5.43 × 10^9 p/s/cm^2/sr
[2]; 4 h post-injection
  tumor fluorescence intensity: 5.23 × 10^9 p/s/cm^2/sr
[2]; 24 h post-injection
  tumor fluorescence intensity: 7.18 × 10^9 p/s/cm^2/sr
[2]; 48 h post-injection
  tumor fluorescence intensity: 4.30 × 10^9 p/s/cm^2/sr
[3]; 4 h
  tumor-to-background fluorescence ratio: 368.67 ± 151.28
[3]; 48 h
  fluorescence signal intensity, kidneys: 3.95 × 10^8 p/s/cm^2/sr
  fluorescence signal intensity, liver: 5.04 × 10^8 p/s/cm^2/sr
  fluorescence signal intensity, lungs: 2.02 × 10^8 p/s/cm^2/sr
  fluorescence signal intensity, spleen: 8.77 × 10^7 p/s/cm^2/sr
  tumor-to-background fluorescence ratio: 4746.67 ± 100.66
[3]; 96 h
  fluorescence signal intensity, liver: 4.38 × 10^8 p/s/cm^2/sr
[3]; 168 h
  fluorescence in normal tissues: nearly undetectable
[3]
  tumor fluorescence signal remained detectable (time post-injection): up to 168 h

## O=C([O-])CN1CCN(CC(=O)[O-])CCN(CC(=O)NCCCCNC(=O)Cc2ccc(-c3nncnn3)cc2)CCN(CC(=O)[O-])CC1.[68Ga+3] [^68Ga-DOTA-H-Tz]
[4]
  log p: −3.57 ± 0.21
[5]
  radiochemical purity in FBS at 4 h: 98.53 ± 0.58%
  radiochemical stability after 4 h: > 85%
[6]
  radiochemical purity in PBS after 4 h: 98.76 ± 0.52%
[7]; 24 h interval
  maximum T/M ratio: 5.31 ± 0.48
[7]; 24 h interval, 30 min p.i.
  liver uptake: 2.61 ± 0.53 %ID/g
  tumor uptake: 2.64 ± 0.73 %ID/g
[7]; 24 h interval, 60 min p.i.
  T/L ratio: 1.01 ± 0.08
  liver uptake: 1.15 ± 0.16 %ID/g
  tumor uptake: 1.18 ± 0.25 %ID/g
[7]; 24 h interval, 120 min p.i.
  liver uptake: 0.91 ± 0.16 %ID/g
  tumor uptake: 0.79 ± 0.14 %ID/g
[7]; 48 h interval
  T/L ratio: 1.35 ± 0.26
  T/M ratio (highest): 8.30 ± 3.39
[7]; 48 h interval, 30 min p.i.
  tumor uptake: 3.24 ± 0.95 %ID/g
[7]; 48 h interval, 120 min p.i.
  tumor uptake: 0.96 ± 0.29 %ID/g
[7]; 72 h interval
  maximum T/M ratio: 5.84 ± 1.49
[7]; 72 h interval, 30 min p.i.
  liver uptake: 2.32 ± 0.79 %ID/g
  tumor uptake: 1.89 ± 0.57 %ID/g
[7]; 72 h interval, 60 min p.i.
  T/L ratio: 0.98 ± 0.10
  liver uptake: 1.40 ± 0.43 %ID/g
  tumor uptake: 1.35 ± 0.31 %ID/g
[7]; 72 h interval, 120 min p.i.
  liver uptake: 0.97 ± 0.05 %ID/g
  tumor uptake: 0.91 ± 0.31 %ID/g
[8]; 30 min
  Blood uptake: 2.96 ± 0.11 %ID/g
  Bone uptake: 0.64 ± 0.27 %ID/g
  Brain uptake: 0.37 ± 0.30 %ID/g
  Heart uptake: 1.34 ± 0.53 %ID/g
  Intestine uptake: 1.97 ± 0.38 %ID/g
  Kidney uptake: 10.71 ± 1.34 %ID/g
  Lung uptake: 2.38 ± 1.41 %ID/g
  Muscle uptake: 0.97 ± 0.21 %ID/g
  Spleen uptake: 1.03 ± 0.08 %ID/g
  Stomach uptake: 1.16 ± 0.13 %ID/g
  T/B (tumor-to-blood ratio): 1.18 ± 0.55
  T/K (tumor-to-kidney ratio): 0.32 ± 0.14
  T/L (tumor-to-liver ratio): 1.18 ± 0.28
  liver uptake: 2.95 ± 1.04 %ID/g
  tumor uptake: 3.53 ± 1.76 %ID/g
[8]; 60 min
  Blood uptake: 1.05 ± 0.29 %ID/g
  Bone uptake: 0.52 ± 0.20 %ID/g
  Brain uptake: 0.10 ± 0.03 %ID/g
  Heart uptake: 0.78 ± 0.58 %ID/g
  Intestine uptake: 0.59 ± 0.08 %ID/g
  Kidney uptake: 6.54 ± 1.95 %ID/g
  Lung uptake: 0.50 ± 0.18 %ID/g
  Muscle uptake: 0.38 ± 0.15 %ID/g
  Spleen uptake: 0.91 ± 0.70 %ID/g
  Stomach uptake: 0.83 ± 0.30 %ID/g
  T/B (tumor-to-blood ratio): 1.63 ± 0.53
  T/K (tumor-to-kidney ratio): 0.25 ± 0.05
  T/L (tumor-to-liver ratio): 1.08 ± 0.27
  T/M (tumor-to-muscle ratio): 5.11 ± 3.51
  liver uptake: 1.56 ± 0.49 %ID/g
  tumor uptake: 1.72 ± 0.87 %ID/g
[8]; 120 min
  Blood uptake: 0.64 ± 0.18 %ID/g
  Bone uptake: 0.08 ± 0.03 %ID/g
  Brain uptake: 0.03 ± 0.01 %ID/g
  Heart uptake: 0.17 ± 0.03 %ID/g
  Intestine uptake: 0.11 ± 0.08 %ID/g
  Kidney uptake: 3.28 ± 1.00 %ID/g
  Lung uptake: 0.14 ± 0.02 %ID/g
  Muscle uptake: 0.07 ± 0.02 %ID/g
  Spleen uptake: 0.24 ± 0.06 %ID/g
  Stomach uptake: 0.10 ± 0.05 %ID/g
  T/B (tumor-to-blood ratio): 1.39 ± 0.74
  T/K (tumor-to-kidney ratio): 0.26 ± 0.10
  T/L (tumor-to-liver ratio): 1.07 ± 0.05
  T/M (tumor-to-muscle ratio): 10.92 ± 0.31
  liver uptake: 0.76 ± 0.23 %ID/g
  tumor uptake: 0.82 ± 0.28 %ID/g
[8]; all time points
  Bone uptake, consistently: < 0.70 %ID/g

## Cc1nnc(-c2ccc(OCCOCCOCCOCCNC(=O)CN3CCN(CC(=O)[O-])CCN(CC(=O)[O-])CCN(CC(=O)[O-])CC3)cc2)nn1.[68Ga+3] [^68Ga-DOTA-Me-Tz]
[4]
  log p: −2.87 ± 0.02
[5]
  radiochemical purity in FBS at 4 h: 85.88 ± 7.55%
  radiochemical stability after 4 h: > 85%
[6]
  radiochemical purity in PBS after 4 h: 94.48 ± 1.48%
